The values that follow come from publication PMC6003702 (Biopolymers, 2017).

Like-named read-outs stand apart in the source and are kept apart here. Where a SMILES comes first, the peptide text is derived from it.

In one assay the target is mouse DOR (Mus musculus, UniProt P32300). Briefly: Radioligand binding assay, DOR.
The next assay has as its target cloned rat KOR (Rattus norvegicus, UniProt P34975). The experiment in a line: Radioligand binding assay, KOR. Particulars: SEM.
The next assay addresses cloned KOR (Rattus norvegicus, UniProt P34975). Briefly: [35S]GTPγS assay at KOR. Particulars: SEM. It is filed as biochemical.
A further assay addresses cloned rat MOR (Rattus norvegicus, UniProt P33535). The experiment in a line: Radioligand binding assay, MOR. The note with it: SEM.

As a reminder, the Ki is a measure of affinity in units of concentration, obtained from inhibition or displacement. Low readings indicate a stronger hold on the target, high ones a looser hold on the target. Usually EC50 stands for the concentration at which the effect is half-maximal. Read a high EC50 as weaker potency.

mouse DOR, sequence (P32300 whole entry): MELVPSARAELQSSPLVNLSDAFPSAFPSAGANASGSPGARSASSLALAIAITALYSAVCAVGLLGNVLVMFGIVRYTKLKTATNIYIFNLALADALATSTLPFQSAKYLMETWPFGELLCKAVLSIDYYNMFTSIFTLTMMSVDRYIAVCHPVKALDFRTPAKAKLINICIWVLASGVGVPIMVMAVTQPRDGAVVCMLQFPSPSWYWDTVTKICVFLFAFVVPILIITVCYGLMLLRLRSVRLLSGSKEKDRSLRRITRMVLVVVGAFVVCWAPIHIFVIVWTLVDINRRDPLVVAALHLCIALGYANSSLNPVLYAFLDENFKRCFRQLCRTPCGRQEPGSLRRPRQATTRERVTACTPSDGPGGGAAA
cloned rat MOR, sequence (P33535 whole entry): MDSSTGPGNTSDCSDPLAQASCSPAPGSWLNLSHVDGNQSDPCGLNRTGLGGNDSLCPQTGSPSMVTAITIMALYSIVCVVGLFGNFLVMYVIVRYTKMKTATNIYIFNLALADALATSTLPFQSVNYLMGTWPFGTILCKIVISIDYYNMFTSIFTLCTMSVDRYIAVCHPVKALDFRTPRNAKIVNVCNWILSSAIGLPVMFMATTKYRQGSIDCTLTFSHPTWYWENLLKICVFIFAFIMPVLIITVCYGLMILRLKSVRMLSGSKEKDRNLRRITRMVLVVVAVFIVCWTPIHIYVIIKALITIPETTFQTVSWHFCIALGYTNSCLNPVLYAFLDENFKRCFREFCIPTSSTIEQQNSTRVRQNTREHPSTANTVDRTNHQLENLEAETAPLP
cloned KOR, sequence (P34975 whole entry): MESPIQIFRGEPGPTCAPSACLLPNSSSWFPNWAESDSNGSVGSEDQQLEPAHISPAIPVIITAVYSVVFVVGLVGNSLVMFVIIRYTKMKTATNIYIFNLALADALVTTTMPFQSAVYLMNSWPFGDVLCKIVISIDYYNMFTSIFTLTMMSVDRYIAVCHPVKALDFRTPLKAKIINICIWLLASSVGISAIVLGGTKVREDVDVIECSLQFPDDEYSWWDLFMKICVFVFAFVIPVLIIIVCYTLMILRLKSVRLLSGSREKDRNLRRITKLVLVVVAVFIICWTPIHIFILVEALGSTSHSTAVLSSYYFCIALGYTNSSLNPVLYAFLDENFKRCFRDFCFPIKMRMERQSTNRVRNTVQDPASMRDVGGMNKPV
cloned rat KOR, sequence (P34975 whole entry): as above

As for `CC(C)C[C@H](NC(=O)[C@H](Cc1ccccc1)NC(=O)CNC(=O)CNC(=O)[C@H](C)N)C(=O)N[C@@H](CCCNC(=N)N)C(=O)N[C@@H](CCCNC(=N)N)C(=O)N[C@@H](CCC(N)=O)C(=O)N[C@@H](Cc1ccccc1)C(=O)N[C@@H](CCCCN)C(=O)N[C@H](C(=O)N[C@H](C(=O)N[C@H](C(N)=O)[C@@H](C)O)C(C)C)C(C)C` [Compound 1] (H-AGGFLRRQFKVVT-NH2), the Ki at mouse DOR is greater than 10000 nM; on cloned rat KOR, 886 ± 123 nM; at cloned rat MOR it was 651 ± 70 nM. This compound came in with a concentration for a half-maximal effect (EC50) at cloned KOR of 2650 ± 890 nM.
In the case of `CC(C)C[C@H](NC(=O)[C@H](C)NC(=O)CNC(=O)CNC(=O)[C@@H](N)Cc1ccc(O)cc1)C(=O)N[C@@H](CCCNC(=N)N)C(=O)N[C@@H](CCCNC(=N)N)C(=O)N[C@@H](CCC(N)=O)C(=O)N[C@@H](Cc1ccccc1)C(=O)N[C@@H](CCCCN)C(=O)N[C@H](C(=O)N[C@H](C(=O)N[C@H](C(N)=O)[C@@H](C)O)C(C)C)C(C)C` [Compound 2] (H-YGGALRRQFKVVT-NH2), the Ki is greater than 10000 nM at mouse DOR, 1510 ± 221 nM at cloned rat KOR and 1040 ± 100 nM on cloned rat MOR. This compound gave an EC50 at cloned KOR of 1180 ± 330 nM.
`CC(C)[C@H](NC(=O)[C@H](CCCCN)NC(=O)[C@H](Cc1ccccc1)NC(=O)[C@H](CCC(N)=O)NC(=O)[C@H](CCCNC(=N)N)NC(=O)[C@H](CCCNC(=N)N)NC(=O)[C@H](C)NC(=O)[C@H](Cc1ccccc1)NC(=O)CNC(=O)CNC(=O)[C@@H](N)Cc1ccc(O)cc1)C(=O)N[C@H](C(=O)N[C@H](C(N)=O)[C@@H](C)O)C(C)C` [Compound 3] (H-YGGFARRQFKVVT-NH2): the Ki on mouse DOR (SEM) was 265 ± 43 nM; on cloned rat KOR, 12.1 ± 5.2 nM; on cloned rat MOR, 20.3 ± 3.1 nM. On cloned KOR, this compound had an EC50 of 109 ± 34 nM.
Taken in the same sequence, the figures for `CC(C)C[C@H](NC(=O)[C@H](Cc1ccccc1)NC(=O)CNC(=O)CNC(=O)[C@@H](N)Cc1ccc(O)cc1)C(=O)N[C@@H](C)C(=O)N[C@@H](CCCNC(=N)N)C(=O)N[C@@H](CCC(N)=O)C(=O)N[C@@H](Cc1ccccc1)C(=O)N[C@@H](CCCCN)C(=O)N[C@H](C(=O)N[C@H](C(=O)N[C@H](C(N)=O)[C@@H](C)O)C(C)C)C(C)C` [Compound 4] (H-YGGFLARQFKVVT-NH2) were 25.7 ± 1.6 nM, 43.1 ± 2.8 nM, 14.1 ± 3 nM and 116 ± 21 nM.
Taken in the same sequence, the figures for `CC(C)C[C@H](NC(=O)[C@H](Cc1ccccc1)NC(=O)CNC(=O)CNC(=O)[C@@H](N)Cc1ccc(O)cc1)C(=O)N[C@@H](CCCNC(=N)N)C(=O)N[C@@H](C)C(=O)N[C@@H](CCC(N)=O)C(=O)N[C@@H](Cc1ccccc1)C(=O)N[C@@H](CCCCN)C(=O)N[C@H](C(=O)N[C@H](C(=O)N[C@H](C(N)=O)[C@@H](C)O)C(C)C)C(C)C` [Compound 5] (H-YGGFLRAQFKVVT-NH2) were 67.5 ± 8.3 nM, 82.4 ± 9.3 nM, 16.7 ± 5.1 nM and 802 ± 290 nM.
`CC(C)C[C@H](NC(=O)[C@H](Cc1ccccc1)NC(=O)CNC(=O)CNC(=O)[C@@H](N)Cc1ccc(O)cc1)C(=O)N[C@@H](CCCNC(=N)N)C(=O)N[C@@H](CCCNC(=N)N)C(=O)N[C@@H](C)C(=O)N[C@@H](Cc1ccccc1)C(=O)N[C@@H](CCCCN)C(=O)N[C@H](C(=O)N[C@H](C(=O)N[C@H](C(N)=O)[C@@H](C)O)C(C)C)C(C)C` [Compound 6] (H-YGGFLRRAFKVVT-NH2): the inhibition constant Ki was 54 ± 6.9 nM on mouse DOR (SEM), 13 ± 0.96 nM on cloned rat KOR and 4.32 ± 0.1 nM at cloned rat MOR. In addition, the EC50 at cloned KOR worked out at 20.2 ± 10.8 nM.
Taken in the same sequence, the figures for `CC(C)C[C@H](NC(=O)[C@H](Cc1ccccc1)NC(=O)CNC(=O)CNC(=O)[C@@H](N)Cc1ccc(O)cc1)C(=O)N[C@@H](CCCNC(=N)N)C(=O)N[C@@H](CCCNC(=N)N)C(=O)N[C@@H](CCC(N)=O)C(=O)N[C@@H](C)C(=O)N[C@@H](CCCCN)C(=O)N[C@H](C(=O)N[C@H](C(=O)N[C@H](C(N)=O)[C@@H](C)O)C(C)C)C(C)C` [Compound 7] (H-YGGFLRRQAKVVT-NH2) were 42.1 ± 2.5 nM, 11.3 ± 1.7 nM, 3.76 ± 0.22 nM and 14.8 ± 2.6 nM.
In the case of `CC(C)C[C@H](NC(=O)[C@H](Cc1ccccc1)NC(=O)CNC(=O)CNC(=O)[C@@H](N)Cc1ccc(O)cc1)C(=O)N[C@@H](CCCNC(=N)N)C(=O)N[C@@H](CCCNC(=N)N)C(=O)N[C@@H](CCC(N)=O)C(=O)N[C@@H](Cc1ccccc1)C(=O)N[C@@H](C)C(=O)N[C@H](C(=O)N[C@H](C(=O)N[C@H](C(N)=O)[C@@H](C)O)C(C)C)C(C)C` [Compound 8] (H-YGGFLRRQFAVVT-NH2), the Ki at mouse DOR (SEM) was 119 ± 16 nM; on cloned rat KOR, 31.6 ± 6 nM; on cloned rat MOR it was 40.5 ± 3.9 nM. At cloned KOR, this compound returned an EC50 of 6.36 ± 1.7 nM.
Regarding `CC(C)C[C@H](NC(=O)[C@H](Cc1ccccc1)NC(=O)CNC(=O)CNC(=O)[C@@H](N)Cc1ccc(O)cc1)C(=O)N[C@@H](CCCNC(=N)N)C(=O)N[C@@H](CCCNC(=N)N)C(=O)N[C@@H](CCC(N)=O)C(=O)N[C@@H](Cc1ccccc1)C(=O)N[C@@H](CCCCN)C(=O)N[C@@H](C)C(=O)N[C@H](C(=O)N[C@H](C(N)=O)[C@@H](C)O)C(C)C` [Compound 9] (H-YGGFLRRQFKAVT-NH2), the values for the inhibition constant Ki on mouse DOR (SEM), on cloned rat KOR and at cloned rat MOR were 58.8 ± 3.4 nM, 12.4 ± 1.6 nM and 7.45 ± 2.69 nM, respectively. The same compound yielded an EC50 on cloned KOR of 8.79 ± 2.2 nM.
For the compound `CC(C)C[C@H](NC(=O)[C@H](Cc1ccccc1)NC(=O)CNC(=O)CNC(=O)[C@@H](N)Cc1ccc(O)cc1)C(=O)N[C@@H](CCCNC(=N)N)C(=O)N[C@@H](CCCNC(=N)N)C(=O)N[C@@H](CCC(N)=O)C(=O)N[C@@H](Cc1ccccc1)C(=O)N[C@@H](CCCCN)C(=O)N[C@H](C(=O)N[C@H](C(=O)N[C@H](C(N)=O)[C@@H](C)O)C(C)C)C(C)C` [Dyn B amide, reference compound], the inhibition constant Ki is 43.2 ± 1.6 nM at mouse DOR (SEM), 6.3 ± 1.68 nM on cloned rat KOR and 8.05 ± 2.87 nM on cloned rat MOR. For the same compound, the EC50 on cloned KOR is 9.14 ± 1.96 nM.
